Assay results published in article PMC2607018, “Iodine Atoms: A New Molecular Feature for the Design of Potent Transthyretin Fibrillogenesis Inhibitors” (PLoS ONE, 2009).

target: TTR variant Y78F (Homo sapiens, UniProt P02766, Y98F); test: Kinetic turbidity assay of acid induced fibril formation; format: biochemical; conditions: inhibitor concentration at which the initial rate of fibril formation is half; Y78F TTR 0.4 mg/mL, pH 4.2, 37 °C; read-out: Kinetic turbidity assay IC50
Text: Two different parameters can be derived from this kinetic test. The IC50 value is the inhibitor concentration at which the initial rate of fibril formation is half than that in the absence of inhibitor. In turn, RA (%) can be defined as the percent reduction of fibril formation rate at high inhibitor concentration relative to the rate at zero concentration of tested compound.
An in vitro turbidimetric test in a high troughput mode was used to assess the fibrillogenesis inhibition potency of the compounds of the library. The mutant protein TTRY78F was incubated with various concentrations of test compounds in 96 well microplates. After lowering the pH of the solutions to 4.2, the incubation was extended for 1.5 h while recording the absorbance at 340 nm at 1 min intervals. […] (Figure S1).
The mutant Y78F TTR protein (0.4 mg.mL^-1) was incubated for 30 min (pH 7.6, 37 °C) with 6 concentrations of test compounds ranging from 0 to 40 µM in 96-well microplates.
IC50% value is the inhibitor concentration at which the initial rate of fibril formation is half of that in the absence of inhibitor. RA(%) is the percentage of reduction in fibril formation rate induced by a given concentration of test compound relative to the rate of experiments at zero concentration of test compound.

NC(=O)c1cc(-c2ccc(F)cc2F)ccc1O [2a, 2’,4’-difluoro-4-hydroxy-[1,1’]-biphenyl-3-carboxamide] and COC(=O)c1cc(-c2ccc(F)cc2F)ccc1O [3a, 2’,4’-difluoro-4-hydroxy-[1,1’]-biphenyl-3-carboxylic methyl ester] cannot be ordered by IC50: greater than 50 µM for the first, greater than 50 µM for the second.

Going from NC(=O)c1cc(-c2ccc(F)cc2F)cc(I)c1O [2b, 2’,4’-difluoro-4-hydroxy-5-iodo-[1,1’]-biphenyl-3-carboxamide] to COC(=O)c1cc(-c2ccc(F)cc2F)cc(I)c1O [3b, 2’,4’-difluoro-4-hydroxy-5-iodo-[1,1’]-biphenyl-3-carboxylic methyl ester], the IC50 falls from 12.4 µM to 6.1 µM (2-fold). The second is the more potent here.

CCOC(=O)c1cc(-c2ccc(F)cc2F)ccc1O [4a, 2’,4’-difluoro-4-hydroxy-[1,1’]-biphenyl-3-carboxylic acid ethyl ester] and CCOC(=O)[C@H](C)NC(=O)c1cc(-c2ccc(F)cc2F)ccc1O [11a, N-[2’,4’-difluoro-4-hydroxy-[1,1’]-biphenyl-3-carbonyl]-L-alanine ethyl ester] cannot be ordered by IC50: greater than 50 µM for the first, greater than 50 µM for the second.

CCOC(=O)c1cc(-c2ccc(F)cc2F)cc(I)c1O [4b] and COC(=O)c1cc(-c2ccc(F)cc2F)cc(I)c1N [6b, 2’,4’-difluoro-4-amino-3-iodo-[1,1’]-biphenyl-3-carboxylic acid methyl ester] are within 1.5-fold of each other in IC50: 6.9 µM for the first, 7.5 µM for the second.

Going from Nc1ccc(-c2ccc(F)cc2F)cc1C(=O)O [5a, 2’,4’-difluoro-4-amino-[1,1’]-biphenyl-3-carboxylic acid] to COC(=O)c1cc(-c2ccc(F)cc2F)ccc1N [6a, 2’,4’-difluoro-4-amino-[1,1’]-biphenyl-3-carboxylic acid methyl ester], the IC50 falls from greater than 50 µM to 41 µM.

Compared with Nc1c(I)cc(-c2ccc(F)cc2F)cc1C(=O)O [5b, 2’,4’-difluoro-4-amino-3-iodo-[1,1’]-biphenyl-3-carboxylic acid], CC(=O)Oc1c(I)cc(-c2ccc(F)cc2F)cc1C(=O)O [7b, 4-Acetoxy-2’,4’-difluoro-5-iodo-[1,1’]-biphenyl-3-carboxylic acid] is 3.4-fold lower in IC50: 16.3 µM for the first, 4.8 µM for the second. The second is the more potent here.

CC(=O)Oc1ccc(-c2ccc(F)cc2F)cc1C(=O)O [7a, 4-Acetoxy-2’,4’-difluoro-[1,1’]-biphenyl-3-carboxylic acid] and C[C@H](NC(=O)c1cc(-c2ccc(F)cc2F)ccc1O)C(=O)O [9a, N-[2’,4’-difluoro-4-hydroxy-[1,1’]-biphenyl-3-carbonyl]-L-alanine] cannot be ordered by IC50: greater than 50 µM for the first, greater than 50 µM for the second.

O=C(O)CNC(=O)c1cc(-c2ccc(F)cc2F)ccc1O [8a, N-[2’,4’-difluoro-4-hydroxy-[1,1’]-biphenyl-3-carbonyl]-glycine] and O=C(NC(CO)C(=O)O)c1cc(-c2ccc(F)cc2F)ccc1O (stereo not drawn) [14a] cannot be ordered by IC50: greater than 50 µM for the first, greater than 50 µM for the second.

First: O=C(O)CNC(=O)c1cc(-c2ccc(F)cc2F)cc(I)c1O [8b, N-[2’-,4’-difluoro-4-hydroxy-5-iodo-[1,1’]-biphenyl-3-carbonyl]-glycine]
Second: CC(NC(=O)c1cc(-c2ccc(F)cc2F)cc(I)c1O)C(=O)O [9b, N-[2’,4’-difluoro-4-hydroxy-5-iodo-hydroxy-[1,1’]-biphenyl-3-carbonyl]-L-alanine]
The IC50 of the first is 1.9-fold higher: 11.1 µM for the first, 5.8 µM for the second.

COC(=O)[C@H](C)NC(=O)c1cc(-c2ccc(F)cc2F)ccc1O [10a, N-[2’,4’-difluoro-4-hydroxy-[1,1’]-biphenyl-3-carbonyl]-L-alanine methyl ester] and COC(=O)[C@H](CO)NC(=O)c1cc(-c2ccc(F)cc2F)ccc1O [15a, N-[2’,4’-difluoro-4-hydroxy-[1,1’]-biphenyl-3-carbonyl]-L-serine methyl ester] cannot be ordered by IC50: greater than 50 µM for the first, greater than 50 µM for the second.

COC(=O)[C@H](C)NC(=O)c1cc(-c2ccc(F)cc2F)cc(I)c1O [10b, N-[2’,4’-difluoro-4-hydroxy-5-iodo-[1,1’]-biphenyl-3-carbonyl] -L-alanine methyl ester] and COC(=O)[C@H](CO)NC(=O)c1cc(-c2ccc(F)cc2F)cc(I)c1O [15b, N-[2’,4’-difluoro-4-hydroxy-5-iodo-[1,1’]-biphenyl-3-carbonyl]-L-serine methyl ester] are within 1.5-fold of each other in IC50: 5.5 µM for the first, 7.2 µM for the second.

CC(C)C[C@H](NC(=O)c1cc(-c2ccc(F)cc2F)ccc1O)C(=O)O [12a, N-[2’,4’-difluoro-4-hydroxy-[1,1’]-biphenyl-3-carbonyl]-L-leucine] and CC(C)CC(NC(=O)c1cc(-c2ccc(F)cc2F)ccc1O)C(=O)OC(C)(C)C [13a, N-[2’,4’-difluoro-4-hydroxy-[1,1’]-biphenyl-3-carbony]-L-leucine tert-butyl ester] cannot be ordered by IC50: greater than 50 µM for the first, greater than 50 µM for the second.

CC(C)C[C@H](NC(=O)c1cc(-c2ccc(F)cc2F)cc(I)c1O)C(=O)O [12b, N-[2’,4’-difluoro-4-hydroxy-5-iodo-[1,1’]-biphenyl-3-carbonyl]-L-leucine] and O=C(N[C@@H](CO)C(=O)O)c1cc(-c2ccc(F)cc2F)cc(I)c1O [14b, N-[2’,4’-difluoro-4-hydroxy-5-iodo-[1,1’]-biphenyl-3-carbonyl]–L-serine] are within 1.5-fold of each other in IC50: 5 µM for the first, 3.7 µM for the second.

Compared with CC(C)CC(NC(=O)c1cc(-c2ccc(F)cc2F)cc(I)c1O)C(=O)OC(C)(C)C [13b, N-[2’-,4’-difluoro-4-hydroxy-5-iodo-[1,1’]-biphenyl-3-carbonyl)-L-leucine tert-butyl ester], CC(C)(C)OC(=O)CC(NC(=O)c1cc(-c2ccc(F)cc2F)cc(I)c1O)C(=O)O [18b, N-[2’,4’-difluoro-4-hydroxy-5-iodo-[1,1’]-biphenyl-3-carbonyl]-L-aspartic β-tert-butyl ester] is lower in IC50: greater than 50 µM for the first, 6 µM for the second.

O=C(O)C[C@H](NC(=O)c1cc(-c2ccc(F)cc2F)ccc1O)C(=O)O [16a, N-[2’,4’-difluoro-4-hydroxy-[1,1’]-biphenyl-3-carbonyl]-L-aspartic] and NC(=O)C[C@H](NC(=O)c1cc(-c2ccc(F)cc2F)ccc1O)C(=O)O [20a, N-[2’,4’-difluoro-4-hydroxy-[1,1’]-biphenyl-3-carbonyl]-L-asparagine] cannot be ordered by IC50: greater than 50 µM for the first, greater than 50 µM for the second.

O=C(O)CC(NC(=O)c1cc(-c2ccc(F)cc2F)cc(I)c1O)C(=O)O [16b, N-[2’-,4’-difluoro-4-hydroxy-5-iodo-[1,1’]-biphenyl-3-carbonyl]-L-aspartic] and NC(=O)CC(NC(=O)c1cc(-c2ccc(F)cc2F)cc(I)c1O)C(=O)O [20b, N-[2’-,4’-difluoro-4-hydroxy-5-iodo-[1,1’]-biphenyl-3-carbonyl]-L-asparagine] are within 1.5-fold of each other in IC50: 5.2 µM for the first, 7.7 µM for the second.

COC(=O)C(CC(=O)O)NC(=O)c1cc(-c2ccc(F)cc2F)ccc1O [17a, N-[2’,4’-difluoro-4-hydroxy-[1,1’]-biphenyl-3-carbonyl]-L-aspartic α-methyl ester] and COC(=O)C(CC(=O)OC(C)(C)C)NC(=O)c1cc(-c2ccc(F)cc2F)ccc1O [19a, N-[2-,4’-difluoro-4-hydroxy-[1,1’]-biphenyl-3-carbonyl]-L-aspartic α-methyl ester and β-tert-butyl ester] cannot be ordered by IC50: greater than 50 µM for the first, greater than 50 µM for the second.

Going from COC(=O)C(CC(=O)O)NC(=O)c1cc(-c2ccc(F)cc2F)cc(I)c1O [17b, N-[2’,4’-difluoro-4-hydroxy-5-iodo-[1,1’]-biphenyl-3-carbonyl]-L-aspartic α-methyl ester] to CC(C)(C)OC(=O)CC(NC(=O)c1cc(-c2ccc(F)cc2F)ccc1O)C(=O)O [18a, N-[2’,4’-difluoro-4-hydroxy-[1,1’]-biphenyl-3-carbonyl]-L-aspartic β-tert-butyl ester], the IC50 rises from 4.1 µM to 38.3 µM (9.3-fold). The first is the more potent here.
